# From ChEMBL document CHEMBL1135887, “Substituted pentacyclic carbazolones as novel muscarinic allosteric agents: synthesis and structure-affinity and cooperativity relationships” (J Med Chem, 2002)
# What was measured:
# [1] = biological target: T1, Muscarinic acetylcholine receptor M1 (Homo sapiens) (UniProt P11229); test: Logarithm of affinity (log 1/M) at the (N-methyl Scopolamine) NMS-liganded muscarinic acetylcholine receptor M1 by using semiquantitative equilibrium and off-rate assay
# T1 sequence (whole entry): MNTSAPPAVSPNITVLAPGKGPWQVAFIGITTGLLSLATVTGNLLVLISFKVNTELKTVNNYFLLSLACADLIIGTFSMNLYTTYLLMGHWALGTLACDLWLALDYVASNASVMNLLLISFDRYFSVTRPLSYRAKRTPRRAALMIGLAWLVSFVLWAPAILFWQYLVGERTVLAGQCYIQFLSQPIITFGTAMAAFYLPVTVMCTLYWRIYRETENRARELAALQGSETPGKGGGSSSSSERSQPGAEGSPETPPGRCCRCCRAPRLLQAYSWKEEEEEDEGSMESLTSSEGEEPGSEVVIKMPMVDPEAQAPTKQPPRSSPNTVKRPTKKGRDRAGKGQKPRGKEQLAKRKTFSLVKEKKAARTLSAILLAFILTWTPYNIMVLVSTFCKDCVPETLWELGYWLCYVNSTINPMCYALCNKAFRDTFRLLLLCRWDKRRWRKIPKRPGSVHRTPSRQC
# [2] = biological target: T2, Muscarinic acetylcholine receptor M4 (Homo sapiens) (UniProt P08173); test: Subtype selectivity and the cooperativity with N-methyl Scopolamine (NMS) at Muscarinic acetylcholine receptor M4; activity range is 0.2-0.8.
# T2 sequence (whole entry): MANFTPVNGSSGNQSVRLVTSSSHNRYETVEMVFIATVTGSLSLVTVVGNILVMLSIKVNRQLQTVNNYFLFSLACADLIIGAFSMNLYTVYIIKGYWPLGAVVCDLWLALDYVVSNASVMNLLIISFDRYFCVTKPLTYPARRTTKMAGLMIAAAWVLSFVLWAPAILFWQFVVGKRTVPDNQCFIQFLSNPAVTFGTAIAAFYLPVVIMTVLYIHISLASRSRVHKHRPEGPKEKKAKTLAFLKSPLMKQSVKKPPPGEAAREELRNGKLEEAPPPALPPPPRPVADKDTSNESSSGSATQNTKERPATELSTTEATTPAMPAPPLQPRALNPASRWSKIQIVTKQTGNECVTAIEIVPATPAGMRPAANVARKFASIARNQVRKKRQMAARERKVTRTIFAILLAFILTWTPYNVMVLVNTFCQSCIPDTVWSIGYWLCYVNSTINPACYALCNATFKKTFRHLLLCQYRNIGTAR
# [3] = biological target: T1, Muscarinic acetylcholine receptor M1 (Homo sapiens); test: Subtype selectivity and the cooperativity with N-methyl Scopolamine (NMS) at Muscarinic acetylcholine receptor M1,activity range is 0.2-0.8.
# [4] = biological target: T3, Muscarinic acetylcholine receptor M2 (Homo sapiens) (UniProt P08172); test: Subtype selectivity and the cooperativity with N-methyl Scopolamine (NMS) at Muscarinic acetylcholine receptor M2,activity range is 1.2-3.
# T3 sequence (whole entry): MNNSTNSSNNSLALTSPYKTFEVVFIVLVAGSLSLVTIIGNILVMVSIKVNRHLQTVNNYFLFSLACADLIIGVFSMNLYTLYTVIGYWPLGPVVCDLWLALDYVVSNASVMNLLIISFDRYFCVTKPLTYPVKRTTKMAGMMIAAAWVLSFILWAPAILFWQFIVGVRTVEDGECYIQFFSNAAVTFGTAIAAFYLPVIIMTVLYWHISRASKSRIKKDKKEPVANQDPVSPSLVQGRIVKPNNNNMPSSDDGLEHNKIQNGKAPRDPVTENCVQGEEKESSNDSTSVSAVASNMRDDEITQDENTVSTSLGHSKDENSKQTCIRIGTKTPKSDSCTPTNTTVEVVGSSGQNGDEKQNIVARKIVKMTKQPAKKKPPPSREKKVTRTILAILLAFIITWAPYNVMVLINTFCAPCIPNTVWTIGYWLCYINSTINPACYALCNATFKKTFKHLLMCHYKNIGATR
# [5] = biological target: Muscarinic acetylcholine receptor M3 (Homo sapiens) (UniProt P20309); test: Subtype selectivity and the cooperativity with N-methyl Scopolamine (NMS) at Muscarinic acetylcholine receptor M3; activity ranges is 0.2-0.8.
# Sequence of Muscarinic acetylcholine receptor M3 (Homo sapiens) (P20309 whole entry, looked up): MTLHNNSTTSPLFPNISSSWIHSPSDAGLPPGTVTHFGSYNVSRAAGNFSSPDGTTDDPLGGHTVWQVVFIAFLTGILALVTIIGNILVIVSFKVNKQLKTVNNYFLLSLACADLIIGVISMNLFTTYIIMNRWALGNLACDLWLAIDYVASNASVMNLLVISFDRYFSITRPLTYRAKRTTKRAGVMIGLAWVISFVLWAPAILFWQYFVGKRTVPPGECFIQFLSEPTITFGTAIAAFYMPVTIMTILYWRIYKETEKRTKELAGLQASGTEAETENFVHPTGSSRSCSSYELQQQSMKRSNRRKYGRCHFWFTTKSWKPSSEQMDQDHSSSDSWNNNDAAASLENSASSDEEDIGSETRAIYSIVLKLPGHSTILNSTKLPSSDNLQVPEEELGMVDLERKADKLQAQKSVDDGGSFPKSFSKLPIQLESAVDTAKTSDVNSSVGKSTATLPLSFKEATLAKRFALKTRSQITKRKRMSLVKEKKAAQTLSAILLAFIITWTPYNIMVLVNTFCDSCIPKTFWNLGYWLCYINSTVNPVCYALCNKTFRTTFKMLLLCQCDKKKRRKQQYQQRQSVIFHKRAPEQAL
# [6] = biological target: T2, Muscarinic acetylcholine receptor M4 (Homo sapiens); test: Logarithm of affinity (log 1/M) at the muscarinic acetylcholine receptor M4 by using semiquantitative equilibrium and off-rate assay
# [7] = biological target: T3, Muscarinic acetylcholine receptor M2 (Homo sapiens); test: Logarithm of affinity (log 1/M) at the muscarinic acetylcholine receptor M2 by using semiquantitative equilibrium and off-rate assay
# [8] = biological target: T3, Muscarinic acetylcholine receptor M2 (Homo sapiens); test: Logarithm of affinity (log 1/M) at the (N-methyl Scopolamine) NMS-liganded muscarinic acetylcholine receptor M2 by using semiquantitative equilibrium and off-rate assay
# [9] = biological target: Muscarinic acetylcholine receptor M3 (Homo sapiens) (UniProt P20309); test: Logarithm of affinity (log 1/M) at the muscarinic acetylcholine receptor M3 by using semiquantitative equilibrium and off-rate assay
# [10] = biological target: T1, Muscarinic acetylcholine receptor M1 (Homo sapiens); test: Logarithm of affinity (log 1/M) at the free muscarinic acetylcholine receptor M1 by using semiquantitative equilibrium and off-rate assay
# [11] = biological target: T2, Muscarinic acetylcholine receptor M4 (Homo sapiens); test: Logarithm of affinity (log 1/M) at the (N-methyl Scopolamine) NMS-liganded muscarinic acetylcholine receptor M4 by using semiquantitative equilibrium and off-rate assay
# [12] = biological target: Muscarinic acetylcholine receptor M3 (Homo sapiens) (UniProt P20309); test: Logarithm of affinity (log 1/M) at the (N-methyl Scopolamine) NMS-liganded muscarinic acetylcholine receptor M3 by using semiquantitative equilibrium and off-rate assay
# [13] = biological target: T2, Muscarinic acetylcholine receptor M4 (Homo sapiens); test: Subtype selectivity and the cooperativity with N-methyl Scopolamine (NMS) at Muscarinic acetylcholine receptor M4; Activity range is 1.2-3
# [14] = biological target: T3, Muscarinic acetylcholine receptor M2 (Homo sapiens); test: Subtype selectivity and the cooperativity with N-methyl Scopolamine (NMS) at Muscarinic acetylcholine receptor M2; Activity range is 1.2-3
# [15] = biological target: Muscarinic acetylcholine receptor M3 (Homo sapiens) (UniProt P20309); test: Subtype selectivity and the cooperativity with N-methyl Scopolamine (NMS) at Muscarinic acetylcholine receptor M3; […]
# [16] = biological target: T1, Muscarinic acetylcholine receptor M1 (Homo sapiens); test: Subtype selectivity and the cooperativity with N-methyl Scopolamine (NMS) at Muscarinic acetylcholine receptor M1; Activity range is 0.2-0.8
# [17] = biological target: T2, Muscarinic acetylcholine receptor M4 (Homo sapiens); test: Subtype selectivity and the cooperativity with N-methyl Scopolamine (NMS) at Muscarinic acetylcholine receptor M4; Activity range is 0.2-0.8
# [18] = biological target: T1, Muscarinic acetylcholine receptor M1 (Homo sapiens); test: Subtype selectivity and the cooperativity with N-methyl Scopolamine (NMS) at Muscarinic acetylcholine receptor M1
# [19] = biological target: Muscarinic acetylcholine receptor M3 (Homo sapiens) (UniProt P20309); test: Subtype selectivity and the cooperativity with N-methyl Scopolamine (NMS) at muscarinic acetylcholine receptor M3; Activity range is 0.2-0.8
# [20] = biological target: T3, Muscarinic acetylcholine receptor M2 (Homo sapiens); test: Subtype selectivity and the cooperativity with N-methyl Scopolamine (NMS) at muscarinic M2 receptor; Activity range is 0.81-1.19
# [21] = biological target: T3, Muscarinic acetylcholine receptor M2 (Homo sapiens); test: Subtype selectivity and the cooperativity with N-methyl Scopolamine (NMS) at Muscarinic acetylcholine receptor M2
# [22] = biological target: Muscarinic acetylcholine receptor M3 (Homo sapiens) (UniProt P20309); test: Subtype selectivity and the cooperativity with N-methyl Scopolamine (NMS) at Muscarinic acetylcholine receptor M3; Activity range is 1.2-3
# [23] = biological target: T2, Muscarinic acetylcholine receptor M4 (Homo sapiens); test: Subtype selectivity and the cooperativity with N-methyl Scopolamine (NMS) at Muscarinic acetylcholine receptor M4
# [24] = biological target: T1, Muscarinic acetylcholine receptor M1 (Homo sapiens); test: Subtype selectivity and the cooperativity with N-methyl Scopolamine (NMS) at Muscarinic acetylcholine receptor M1; Activity range is 1.2-3
Log 1/M [1],Log 1/M [6],Log 1/M [7],Log 1/M [8],Log 1/M [9],Log 1/M [10],Log 1/M [11],Log 1/M [12],also measured,SMILES
5.99,5.29,6.18,6.31,5.61,6.06,5.73,5.06,Cooperativity [2]: 0.8; Cooperativity [3]: 0.8; Cooperativity [4]: 3; Cooperativity [5]: 0.8,O=C1CCc2cc3c(c4c5cc6c(cc5n1c24)OCO6)CCNC3
5.81,4.8,6.15,6.47,5.2,6.05,6.05,5.15,Cooperativity [13]: 3; Cooperativity [14]: 3; Cooperativity [15]: 1.19; Cooperativity [16]: 0.8,COc1cc2c3c4c(cc5c3n(c2cc1OC)C(=O)CC5)CNCC4
5.62,5.55,6.44,6.43,5.64,6.32,6,5.09,Cooperativity [17]: 0.8; Cooperativity [18]: < 0.2; Cooperativity [19]: 0.8; Cooperativity [20]: 1.19,COC(=O)c1ccc2c(c1)c1c3c(cc4c1n2C(=O)CC4)CNCC3
6.44,5.9,6.28,6.97,5.19,6.19,6.57,5.53,Cooperativity [21]: > 3; Cooperativity [22]: 3; Cooperativity [23]: > 3; Cooperativity [24]: 3,COc1cc2c3c4c(cc5c3n(c2cc1OC)C(=O)CC5)CCNC4
